*1 amine or outer side, *2 acyl side, *3 side chain or, on linkers, in order; H or OH if unused. Where a SMILES comes first, the peptide text is derived from it. [ ]: non-standard residue; d: D form. The star is where a group is joined. Dolaproine = CO[C@@H]([C@@H]1CCCN1)[C@@H](C)C(=O)O; Dil = CC[C@H](C)[C@H](NC)[C@@H](CC(=O)O)OC; X11 = C[S+]([O-])NC[C@H](N[*:1])C(=O)[*:2]; Tyrosinol = OC[C@H](Cc1ccc(O)cc1)N*; Val(3-OH) = CC(C)(O)[C@H](N)C(=O)O; Doe = c1ccc(C[C@H](N*)c2nccs2)cc1; X1 = C[C@@H](N*)[C@@H](O)c1ccccc1; Hyp = O=C(O)[C@@H]1C[C@@H](O)CN1; NMeT = CN[C@H](C(=O)O)[C@@H](C)O; Phe(ol) = N[C@H](CO)Cc1ccccc1; NHPhenethyl = c1ccc(CCN*)cc1; NMeS = CN[C@@H](CO)C(=O)O; dNMeS = CN[C@H](CO)C(=O)O; Dap = NC[C@H](N)C(=O)O; Glycolyl = O=C(CO)*; Ms = CS(=O)(=O)*
What was measured:
[1] = LogD, miniaturized 1-octanol/pH 7.4 buffer shake flask method, LC/MS/MS; type: physicochemical
Description: The LogD (distribution coefficient) of the compounds was measured using a miniaturized 1-octanol/pH 7.4 buffer shake flask method followed by LC/MS/MS analysis. Values were determined by measuring the compound partitioned in the organic and buffered layers.

Karpas299 NHL = assay: In vitro cytotoxicity, cell proliferation assay (CellTiter-Glo, 96 h); type: cell-based; details: Homo sapiens, KARPAS-299, auristatin free drug
Description: (§1) The cytotoxicity of free drugs and drug conjugates were measured by a cell proliferation assay employing the protocol described in Promega Corp. Technical Bulletin TB288; and Mendoza et al., 2002, Cancer Res. 62:5485-5488), the methods of which are specifically incorporated by reference herein. Briefly, an aliquot of 40 μl of cell culture containing about 400 cells in medium is deposited in each well of a 384-well, opaque-walled plate. A 10 μL aliquot of free drug or drug conjugate is added to the experimental wells and incubated for 96 h and are then equilibrated to room temperature for approximately 30 minutes whereupon a volume of CellTiter-Glo™ reagent equal to the volume of cell culture medium present in each well is added. The contents are mixed for 2 minutes on an orbital shaker to induce cell lysis and the plate is incubated at room temperature for 10 minutes to stabilize the luminescence signal for recordation.

L540cy HL = assay: as above; type: cell-based; details: auristatin free drug
Description: as §1

DEL ALCL = assay: as above; type: cell-based; details: auristatin free drug
Description: as §1

CC[C@H](C)[C@@H]([C@@H](CC(=O)N1CCC[C@H]1[C@H](OC)[C@@H](C)C(=O)N[C@H](CO)Cc1ccccc1)OC)N(C)C(=O)[C@@H](NC(=O)[C@H](CO)NC)C(C)C [Example 12] (H-[NMeS]V[Dil][Dolaproine][Phe(ol)])
logD [1]: 1.2 | IC50 (Karpas299 NHL): 0.3 nM | IC50 (L540cy HL): 4.8 nM | IC50 (DEL ALCL): 1.1 nM

CC[C@H](C)[C@@H]([C@@H](CC(=O)N1CCC[C@H]1[C@H](OC)[C@@H](C)C(=O)N[C@H](CO)Cc1ccccc1)OC)N(C)C(=O)[C@@H](NC(=O)[C@@H](NC)[C@@H](C)O)C(C)C [Example 13] (H-[NMeT]V[Dil][Dolaproine][Phe(ol)])
logD [1]: 1.4 | IC50 (Karpas299 NHL): 2.2 nM | IC50 (L540cy HL): 5 nM | IC50 (DEL ALCL): 1.2 nM

CC[C@H](C)[C@@H]([C@@H](CC(=O)N1CCC[C@H]1[C@H](OC)[C@@H](C)C(=O)N[C@H](CO)Cc1ccccc1)OC)N(C)C(=O)[C@@H](NC(=O)[C@@H](CO)NC)C(C)C [Example 14] (H-[dNMeS]V[Dil][Dolaproine][Phe(ol)])
logD [1]: 1.1 | IC50 (Karpas299 NHL): 7.4 nM | IC50 (L540cy HL): 10 nM | IC50 (DEL ALCL): 3.5 nM

CC[C@H](C)[C@@H]([C@@H](CC(=O)N1CCC[C@H]1[C@H](OC)[C@@H](C)C(=O)N[C@H](C)[C@@H](O)c1ccccc1)OC)N(C)C(=O)[C@@H](NC(=O)[C@H](CO)NC)C(C)C [Example 17] (H-[NMeS]V[Dil][Dolaproine]-X1)
logD [1]: 1.1 | IC50 (Karpas299 NHL): 7.6 nM | IC50 (L540cy HL): 16.2 nM | IC50 (DEL ALCL): 2.5 nM

CC[C@H](C)[C@@H]([C@@H](CC(=O)N1CCC[C@H]1[C@H](OC)[C@@H](C)C(=O)NCCc1ccccc1)OC)N(C)C(=O)[C@@H](NC(=O)[C@H](CO)NC)C(C)C [Example 18] (H-[NMeS]V[Dil][Dolaproine]-NHPhenethyl)
logD [1]: 1.9 | IC50 (Karpas299 NHL): 2.3 nM | IC50 (L540cy HL): 16 nM | IC50 (DEL ALCL): 0.6 nM

CC[C@H](C)[C@@H]([C@@H](CC(=O)N1CCC[C@H]1[C@H](OC)[C@@H](C)C(=O)N[C@@H](Cc1ccccc1)c1nccs1)OC)N(C)C(=O)[C@@H](NC(=O)[C@H](CO)NC)C(C)C [Example 19] (H-[NMeS]V[Dil][Dolaproine]-Doe)
logD [1]: 2.4 | IC50 (Karpas299 NHL): 0.5 nM | IC50 (L540cy HL): 2.5 nM | IC50 (DEL ALCL): 0.4 nM

CC[C@H](C)[C@@H]([C@@H](CC(=O)N1CCC[C@H]1[C@H](OC)[C@@H](C)C(=O)N[C@@H](Cc1ccccc1)c1nccs1)OC)N(C)C(=O)[C@@H](NC(=O)[C@H](CO)NC)[C@@H](C)CC [Example 20] (H-[NMeS]I[Dil][Dolaproine]-Doe)
logD [1]: 1.9 | IC50 (Karpas299 NHL): 1 nM | IC50 (L540cy HL): 4.7 nM | IC50 (DEL ALCL): 0.3 nM

CC[C@H](C)[C@@H]([C@@H](CC(=O)N1CCC[C@H]1[C@H](OC)[C@@H](C)C(=O)N[C@H](C)[C@@H](O)c1ccccc1)OC)N(C)C(=O)[C@@H](NC(=O)[C@@H](N)C(C)(C)O)C(C)C [Example 28] (H-[Val(3-OH)]V[Dil][Dolaproine]-X1)
logD [1]: 2 | IC50 (Karpas299 NHL): 9.4 nM | IC50 (L540cy HL): 28 nM | IC50 (DEL ALCL): 7.8 nM

CC[C@H](C)[C@@H]([C@@H](CC(=O)N1CCC[C@H]1[C@H](OC)[C@@H](C)C(=O)N[C@H](CO)Cc1ccccc1)OC)N(C)C(=O)[C@@H](NC(=O)[C@@H](N)C(C)(C)O)C(C)C [Example 29] (H-[Val(3-OH)]V[Dil][Dolaproine][Phe(ol)])
logD [1]: 2 | IC50 (Karpas299 NHL): 13.7 nM | IC50 (L540cy HL): 58 nM | IC50 (DEL ALCL): 12.7 nM

CC[C@H](C)[C@@H]([C@@H](CC(=O)N1CCC[C@H]1[C@H](OC)[C@@H](C)C(=O)N[C@H](CO)Cc1ccc(O)cc1)OC)N(C)C(=O)[C@@H](NC(=O)[C@@H](N)C(C)(C)O)C(C)C [Example 30] (H-[Val(3-OH)]V[Dil][Dolaproine]-Tyrosinol)
logD [1]: 1.2 | IC50 (Karpas299 NHL): 481 nM | IC50 (L540cy HL): > 1000 nM | IC50 (DEL ALCL): 396 nM

CC[C@H](C)[C@@H]([C@@H](CC(=O)N1CCC[C@H]1[C@H](OC)[C@@H](C)C(=O)N[C@@H](Cc1ccccc1)c1nccs1)OC)N(C)C(=O)[C@@H](NC(=O)[C@@H](N)C(C)(C)O)C(C)C [Example 31] (H-[Val(3-OH)]V[Dil][Dolaproine]-Doe)
logD [1]: 3.4 | IC50 (Karpas299 NHL): 1.7 nM | IC50 (L540cy HL): 4.7 nM | IC50 (DEL ALCL): 2.1 nM

CC[C@H](C)[C@@H]([C@@H](CC(=O)N1CCC[C@H]1[C@H](OC)[C@@H](C)C(=O)N[C@H](CO)Cc1ccccc1)OC)N(C)C(=O)[C@@H](NC(=O)[C@@H](N)CN[S+](C)[O-])C(C)C (some centres unmarked) [Example 48] (H-[X11]V[Dil][Dolaproine][Phe(ol)])
IC50 (Karpas299 NHL): 110 nM | IC50 (L540cy HL): > 1000 nM | IC50 (DEL ALCL): 41 nM

CC[C@H](C)[C@@H]([C@@H](CC(=O)N1CCC[C@H]1[C@H](OC)[C@@H](C)C(=O)N[C@H](CO)Cc1ccccc1)OC)N(C)C(=O)[C@@H](NC(=O)[C@@H]1C[C@@H](O)CN1)C(C)C [Example 49] (H-[Hyp]V[Dil][Dolaproine][Phe(ol)])
IC50 (Karpas299 NHL): 35 nM | IC50 (L540cy HL): 76 nM | IC50 (DEL ALCL): 32 nM

CC[C@H](C)[C@@H]([C@@H](CC(=O)N1CCC[C@H]1[C@H](OC)[C@@H](C)C(=O)N[C@H](CO)Cc1ccccc1)OC)N(C)C(=O)[C@@H](NC(=O)[C@@H](N)CNS(C)(=O)=O)C(C)C [Example 50] (H-[Dap](Ms)V[Dil][Dolaproine][Phe(ol)])
IC50 (Karpas299 NHL): > 1000 nM | IC50 (L540cy HL): > 1000 nM | IC50 (DEL ALCL): > 1000 nM

CC[C@H](C)[C@@H]([C@@H](CC(=O)N1CCC[C@H]1[C@H](OC)[C@@H](C)C(=O)N[C@H](CO)Cc1ccccc1)OC)N(C)C(=O)[C@@H](NC(=O)[C@@H](N)CNC(=O)CO)C(C)C [Example 51] (H-[Dap](Glycolyl)V[Dil][Dolaproine][Phe(ol)])
IC50 (Karpas299 NHL): 224 nM | IC50 (L540cy HL): > 1000 nM | IC50 (DEL ALCL): 93 nM

CC[C@H](C)[C@@H]([C@@H](CC(=O)N1CCC[C@H]1[C@H](OC)[C@@H](C)C(=O)NC(CO)Cc1nccs1)OC)N(C)C(=O)[C@@H](NC(=O)[C@H](CO)N(C)C)C(C)C (some centres unmarked) [Example 52]
IC50 (Karpas299 NHL): 58 nM | IC50 (L540cy HL): 438 nM | IC50 (DEL ALCL): 43 nM

CC[C@H](C)[C@@H]([C@@H](CC(=O)N1CCC[C@H]1[C@H](OC)[C@@H](C)C(=O)NC(CO)Cn1ccnn1)OC)N(C)C(=O)[C@@H](NC(=O)[C@H](CO)N(C)C)C(C)C (some centres unmarked) [Example 53]
IC50 (Karpas299 NHL): > 1000 nM | IC50 (L540cy HL): > 1000 nM | IC50 (DEL ALCL): > 1000 nM

CC[C@H](C)[C@@H]([C@@H](CC(=O)N1CCC[C@H]1[C@H](OC)[C@@H](C)C(=O)NC(CCO)Cc1ccccc1)OC)N(C)C(=O)[C@@H](NC(=O)[C@H](CO)N(C)C)C(C)C (some centres unmarked) [Example 54]
IC50 (Karpas299 NHL): 6 nM | IC50 (L540cy HL): 274 nM | IC50 (DEL ALCL): 7 nM

CC[C@H](C)[C@@H]([C@@H](CC(=O)N1CCC[C@H]1[C@H](OC)[C@@H](C)C(=O)NC(Cc1ccccc1)c1cccs1)OC)N(C)C(=O)[C@@H](NC(=O)[C@H](CO)N(C)C)C(C)C (some centres unmarked) [Example 55]
IC50 (Karpas299 NHL): 1 nM | IC50 (L540cy HL): 16 nM | IC50 (DEL ALCL): 0.8 nM

CC[C@H](C)[C@@H]([C@@H](CC(=O)N1CCC[C@H]1[C@H](OC)[C@@H](C)C(=O)NC(Cc1ccccc1)c1ncco1)OC)N(C)C(=O)[C@@H](NC(=O)[C@H](CO)N(C)C)C(C)C (some centres unmarked) [Example 56]
IC50 (Karpas299 NHL): 0.9 nM | IC50 (L540cy HL): 24 nM | IC50 (DEL ALCL): 1 nM

CC[C@H](C)[C@@H]([C@@H](CC(=O)N1CCC[C@H]1[C@H](OC)[C@@H](C)C(=O)N[C@@H](Cc1ccccc1)[C@@H](O)CO)OC)N(C)C(=O)[C@@H](NC(=O)[C@H](CO)N(C)C)C(C)C [Example 57]
IC50 (Karpas299 NHL): 3 nM | IC50 (L540cy HL): 49 nM | IC50 (DEL ALCL): 4 nM
